Assay results as given in ChEMBL document CHEMBL1135384, “Convenient synthesis and evaluation of enzyme inhibitory activity of several N-alkyl-, N-phenylalkyl, and cyclic isourea derivatives of 5a-carba-alpha-DL-fucopyranosylamine” (Bioorg Med Chem Lett, 2002).

Key:
[1] = target: T1, Beta-galactosidase (Bos taurus, UniProt Q58D55); experiment: Inhibitory activity against Beta-galactosidase in bovine liver was determined; assay type: tissue-based
T1 sequence (Q58D55 whole entry): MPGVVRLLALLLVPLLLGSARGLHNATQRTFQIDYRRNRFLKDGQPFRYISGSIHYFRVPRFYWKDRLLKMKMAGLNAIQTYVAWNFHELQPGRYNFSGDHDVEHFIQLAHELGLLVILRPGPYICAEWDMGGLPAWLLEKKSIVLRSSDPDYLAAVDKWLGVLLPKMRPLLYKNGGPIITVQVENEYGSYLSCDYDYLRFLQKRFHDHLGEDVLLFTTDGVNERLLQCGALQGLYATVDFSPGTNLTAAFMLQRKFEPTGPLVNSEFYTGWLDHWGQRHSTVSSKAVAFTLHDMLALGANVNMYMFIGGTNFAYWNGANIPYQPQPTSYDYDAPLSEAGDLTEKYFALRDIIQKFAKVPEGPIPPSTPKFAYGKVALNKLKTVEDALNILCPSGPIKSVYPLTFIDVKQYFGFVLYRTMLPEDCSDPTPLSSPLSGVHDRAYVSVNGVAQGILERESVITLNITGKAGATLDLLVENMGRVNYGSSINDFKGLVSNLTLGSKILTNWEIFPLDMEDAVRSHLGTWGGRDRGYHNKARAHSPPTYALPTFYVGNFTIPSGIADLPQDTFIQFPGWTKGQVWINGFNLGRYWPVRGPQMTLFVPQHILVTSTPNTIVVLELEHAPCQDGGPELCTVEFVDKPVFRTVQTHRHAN

[2] = target: T1, Beta-galactosidase; experiment: Inhibitory activity against Beta-galactosidase in bovine liver was determined;NI means no inhibition

Row | SMILES | IC50 [2] | IC50 [1] [µM]
1 | CCCCCCCCNC1CC(C)[C@@H](O)[C@H](O)[C@H]1O (some centres undefined) |  | 37
2 | CCNC1CC(C)[C@@H](O)[C@H](O)[C@H]1O (some centres undefined) | Not Active | 
3 | CC1CC2N=C(NCc3ccccc3)O[C@@H]2[C@@H](O)[C@@H]1O (some centres undefined) | Not Active | 
4 | CCCCNC1CC(C)[C@@H](O)[C@H](O)[C@H]1O (some centres undefined) | Not Active | 
5 | CC1CC2N=C(Nc3ccccc3)O[C@@H]2[C@@H](O)[C@@H]1O (some centres undefined) | Not Active | 
6 | CCCCNC1=NC2CC(C)[C@@H](O)[C@H](O)[C@H]2O1 (some centres undefined) | Not Active | 

Continued, in another order:

Row | IC50 [2] | SMILES | IC50 [1] [µM]
7 | Not Active | C[C@@H]1C[C@@H](N)C(O)C(O)[C@@H]1O (single isomer, unassigned) | 
8 | Not Active | C[C@@H]1C[C@H](N)C(O)C(O)[C@@H]1O (single isomer, unassigned) | 
9 | Not Active | C[C@@H]1NC[C@@H](O)[C@H](O)[C@@H]1O [DEOXYFUCONOJIRIMYCIN] | 
